How the values were obtained:
[1] = Caco-2 Papp determination; assay type: in vitro ADME, human; settings: for Papp at 2 h, 1 μM: human, Caco-2, pH 7.4
A1 (h) = target: T1, A1 (h) (Homo sapiens, UniProt P30542); assay: CEREP binding panel; settings: antagonist radioligand, read-out: % Inhibition of Control Specific Binding
T1 construct: purchased Millipore KinaseProfiler (kinases); Cerep (receptors and ion channels)

A2A (h) = target: T2, A2A (h) (Homo sapiens, UniProt P29274); assay: CEREP binding panel; settings: agonist radioligand, read-out: % Inhibition of Control Specific Binding
T2 construct: purchased Millipore KinaseProfiler (kinases); Cerep (receptors and ion channels)

A3 (h) = target: T3, A3 (h) (Homo sapiens, UniProt P0DMS8); assay: CEREP binding panel; settings: agonist radioligand, read-out: % Inhibition of Control Specific Binding
T3 construct: purchased Millipore KinaseProfiler (kinases); Cerep (receptors and ion channels)

β1 (h) = target: T4, β1 (h) (Homo sapiens, UniProt P08588); assay: CEREP binding panel; settings: agonist radioligand, read-out: % Inhibition of Control Specific Binding
T4 construct: purchased Millipore KinaseProfiler (kinases); Cerep (receptors and ion channels)

B2 (h) = target: T5, B2 (h) (Homo sapiens, UniProt P30411); assay: CEREP binding panel; settings: agonist radioligand, read-out: % Inhibition of Control Specific Binding
T5 construct: purchased Millipore KinaseProfiler (kinases); Cerep (receptors and ion channels)

ETA (h) = target: T6, ETA (h) (Homo sapiens, UniProt P25101); assay: CEREP binding panel; settings: agonist radioligand, read-out: % Inhibition of Control Specific Binding
T6 construct: purchased Millipore KinaseProfiler (kinases); Cerep (receptors and ion channels)

CCR1 (h) = target: T7, CCR1 (h) (Homo sapiens, UniProt P32246); assay: CEREP binding panel; settings: agonist radioligand, read-out: % Inhibition of Control Specific Binding
T7 construct: purchased Millipore KinaseProfiler (kinases); Cerep (receptors and ion channels)

NK3 (h) = target: T8, NK3 (h) (Homo sapiens, UniProt P29371); assay: CEREP binding panel; settings: antagonist radioligand, read-out: % Inhibition of Control Specific Binding
T8 construct: purchased Millipore KinaseProfiler (kinases); Cerep (receptors and ion channels)

sst (non-selective) = assay: CEREP binding panel; settings: 10 μM, agonist radioligand
Na+ channel (site 2) = assay: CEREP binding panel; settings: 10 μM, antagonist radioligand
AXL = target: T9, AXL (Homo sapiens, UniProt P30530); assay: Millipore kinase panel; assay type: biochemical; settings: read-out: % Control
T9 construct: purchased Millipore KinaseProfiler (kinases); Cerep (receptors and ion channels)

BRK = target: T10, BRK (Homo sapiens, UniProt Q13882); assay: Millipore kinase panel; assay type: biochemical; settings: read-out: % Control
T10 construct: purchased Millipore KinaseProfiler (kinases); Cerep (receptors and ion channels)

CHK2 = target: T11, CHK2 (Homo sapiens, UniProt O96017); assay: Millipore kinase panel; assay type: biochemical; settings: read-out: % Control
T11 construct: purchased Millipore KinaseProfiler (kinases); Cerep (receptors and ion channels)

EEF-2K = target: T12, EEF-2K (Homo sapiens, UniProt O00418); assay: Millipore kinase panel; assay type: biochemical; settings: read-out: % Control
T12 construct: purchased Millipore KinaseProfiler (kinases); Cerep (receptors and ion channels)

EPHA7 = target: T13, EPHA7 (Homo sapiens, UniProt Q15375); assay: Millipore kinase panel; assay type: biochemical; settings: read-out: % Control
T13 construct: purchased Millipore KinaseProfiler (kinases); Cerep (receptors and ion channels)

ERBB4 = target: T14, ERBB4 (Homo sapiens, UniProt Q15303); assay: Millipore kinase panel; assay type: biochemical; settings: read-out: % Control
T14 construct: purchased Millipore KinaseProfiler (kinases); Cerep (receptors and ion channels)

FES = target: T15, FES (Homo sapiens, UniProt P07332); assay: Millipore kinase panel; assay type: biochemical; settings: read-out: % Control
T15 construct: purchased Millipore KinaseProfiler (kinases); Cerep (receptors and ion channels)

FYN = target: T16, FYN (Homo sapiens, UniProt P06241); assay: Millipore kinase panel; assay type: biochemical; settings: read-out: % Control
T16 construct: purchased Millipore KinaseProfiler (kinases); Cerep (receptors and ion channels)

IKKALPHA = target: T17, IKKALPHA (Homo sapiens, UniProt O15111); assay: Millipore kinase panel; assay type: biochemical; settings: read-out: % Control
T17 construct: purchased Millipore KinaseProfiler (kinases); Cerep (receptors and ion channels)

IKKBETA = target: T18, IKKBETA (Homo sapiens, UniProt O14920); assay: Millipore kinase panel; assay type: biochemical; settings: read-out: % Control
T18 construct: purchased Millipore KinaseProfiler (kinases); Cerep (receptors and ion channels)

LOK = target: T19, LOK (Homo sapiens, UniProt O94804); assay: Millipore kinase panel; assay type: biochemical; settings: read-out: % Control
T19 construct: purchased Millipore KinaseProfiler (kinases); Cerep (receptors and ion channels)

MET = target: T20, MET (Homo sapiens, UniProt P08581); assay: Millipore kinase panel; assay type: biochemical; settings: read-out: % Control
T20 construct: purchased Millipore KinaseProfiler (kinases); Cerep (receptors and ion channels)

MLCK = target: T21, MLCK (Homo sapiens, UniProt Q9H1R3); assay: Millipore kinase panel; assay type: biochemical; settings: read-out: % Control
T21 construct: purchased Millipore KinaseProfiler (kinases); Cerep (receptors and ion channels)

MLK1 = target: T22, MLK1 (Homo sapiens, UniProt P80192); assay: Millipore kinase panel; assay type: biochemical; settings: read-out: % Control
T22 construct: purchased Millipore KinaseProfiler (kinases); Cerep (receptors and ion channels)

MNK2 = target: T23, MNK2 (Homo sapiens, UniProt Q9HBH9); assay: Millipore kinase panel; assay type: biochemical; settings: read-out: % Control
T23 construct: purchased Millipore KinaseProfiler (kinases); Cerep (receptors and ion channels)

NEK2 = target: T24, NEK2 (Homo sapiens, UniProt P51955); assay: Millipore kinase panel; assay type: biochemical; settings: read-out: % Control
T24 construct: purchased Millipore KinaseProfiler (kinases); Cerep (receptors and ion channels)

NEK3 = target: T25, NEK3 (Homo sapiens, UniProt P51956); assay: Millipore kinase panel; assay type: biochemical; settings: read-out: % Control
T25 construct: purchased Millipore KinaseProfiler (kinases); Cerep (receptors and ion channels)

PDGFRALPHA = target: T26, PDGFRALPHA (Homo sapiens, UniProt P16234); assay: Millipore kinase panel; assay type: biochemical; settings: read-out: % Control
T26 construct: purchased Millipore KinaseProfiler (kinases); Cerep (receptors and ion channels)

PDGFRBETA = target: T27, PDGFRBETA (Homo sapiens, UniProt P09619); assay: Millipore kinase panel; assay type: biochemical; settings: read-out: % Control
T27 construct: purchased Millipore KinaseProfiler (kinases); Cerep (receptors and ion channels)

PDK1 = target: T28, PDK1 (Homo sapiens, UniProt O15530); assay: Millipore kinase panel; assay type: biochemical; settings: read-out: % Control
T28 construct: purchased Millipore KinaseProfiler (kinases); Cerep (receptors and ion channels)

PKCZETA = target: T29, PKCZETA (Homo sapiens, UniProt Q05513); assay: Millipore kinase panel; assay type: biochemical; settings: read-out: % Control
T29 construct: purchased Millipore KinaseProfiler (kinases); Cerep (receptors and ion channels)

RET = target: T30, RET (Homo sapiens, UniProt P07949); assay: Millipore kinase panel; assay type: biochemical; settings: read-out: % Control
T30 construct: purchased Millipore KinaseProfiler (kinases); Cerep (receptors and ion channels)

ROS = target: T31, ROS (Homo sapiens, UniProt P08922); assay: Millipore kinase panel; assay type: biochemical; settings: read-out: % Control
T31 construct: purchased Millipore KinaseProfiler (kinases); Cerep (receptors and ion channels)

RSK3 = target: T32, RSK3 (Homo sapiens, UniProt Q15349); assay: Millipore kinase panel; assay type: biochemical; settings: read-out: % Control
T32 construct: purchased Millipore KinaseProfiler (kinases); Cerep (receptors and ion channels)

SAPK4 = target: T33, SAPK4 (Homo sapiens, UniProt O15264); assay: Millipore kinase panel; assay type: biochemical; settings: read-out: % Control
T33 construct: purchased Millipore KinaseProfiler (kinases); Cerep (receptors and ion channels)

SGK3 = target: T34, SGK3 (Homo sapiens, UniProt Q96BR1); assay: Millipore kinase panel; assay type: biochemical; settings: read-out: % Control
T34 construct: purchased Millipore KinaseProfiler (kinases); Cerep (receptors and ion channels)

SIK = target: T35, SIK (Homo sapiens, UniProt P57059); assay: Millipore kinase panel; assay type: biochemical; settings: read-out: % Control
T35 construct: purchased Millipore KinaseProfiler (kinases); Cerep (receptors and ion channels)

TIE2 = target: T36, TIE2 (Homo sapiens, UniProt Q02763); assay: Millipore kinase panel; assay type: biochemical; settings: read-out: % Control
T36 construct: purchased Millipore KinaseProfiler (kinases); Cerep (receptors and ion channels)

WNK3 = target: T37, WNK3 (Homo sapiens, UniProt Q9BYP7); assay: Millipore kinase panel; assay type: biochemical; settings: read-out: % Control
T37 construct: purchased Millipore KinaseProfiler (kinases); Cerep (receptors and ion channels)

PIM-3 = target: T38, PIM-3 (Homo sapiens, UniProt Q86V86); assay: Millipore kinase panel; assay type: biochemical; settings: read-out: % Control
T38 construct: purchased Millipore KinaseProfiler (kinases); Cerep (receptors and ion channels)

ULK3 = target: T39, ULK3 (Homo sapiens, UniProt Q6PHR2); assay: Millipore kinase panel; assay type: biochemical; settings: read-out: % Control
T39 construct: purchased Millipore KinaseProfiler (kinases); Cerep (receptors and ion channels)

PLK1 = target: T40, PLK1 (Homo sapiens, UniProt P53350); assay: Millipore kinase panel; assay type: biochemical; settings: read-out: % Control
T40 construct: purchased Millipore KinaseProfiler (kinases); Cerep (receptors and ion channels)

PI3 KINASE (P110A/P85A) = assay: Millipore kinase panel; assay type: biochemical; settings: 1 μM, ATP at Km

T31 sequence (P08922 28-2347): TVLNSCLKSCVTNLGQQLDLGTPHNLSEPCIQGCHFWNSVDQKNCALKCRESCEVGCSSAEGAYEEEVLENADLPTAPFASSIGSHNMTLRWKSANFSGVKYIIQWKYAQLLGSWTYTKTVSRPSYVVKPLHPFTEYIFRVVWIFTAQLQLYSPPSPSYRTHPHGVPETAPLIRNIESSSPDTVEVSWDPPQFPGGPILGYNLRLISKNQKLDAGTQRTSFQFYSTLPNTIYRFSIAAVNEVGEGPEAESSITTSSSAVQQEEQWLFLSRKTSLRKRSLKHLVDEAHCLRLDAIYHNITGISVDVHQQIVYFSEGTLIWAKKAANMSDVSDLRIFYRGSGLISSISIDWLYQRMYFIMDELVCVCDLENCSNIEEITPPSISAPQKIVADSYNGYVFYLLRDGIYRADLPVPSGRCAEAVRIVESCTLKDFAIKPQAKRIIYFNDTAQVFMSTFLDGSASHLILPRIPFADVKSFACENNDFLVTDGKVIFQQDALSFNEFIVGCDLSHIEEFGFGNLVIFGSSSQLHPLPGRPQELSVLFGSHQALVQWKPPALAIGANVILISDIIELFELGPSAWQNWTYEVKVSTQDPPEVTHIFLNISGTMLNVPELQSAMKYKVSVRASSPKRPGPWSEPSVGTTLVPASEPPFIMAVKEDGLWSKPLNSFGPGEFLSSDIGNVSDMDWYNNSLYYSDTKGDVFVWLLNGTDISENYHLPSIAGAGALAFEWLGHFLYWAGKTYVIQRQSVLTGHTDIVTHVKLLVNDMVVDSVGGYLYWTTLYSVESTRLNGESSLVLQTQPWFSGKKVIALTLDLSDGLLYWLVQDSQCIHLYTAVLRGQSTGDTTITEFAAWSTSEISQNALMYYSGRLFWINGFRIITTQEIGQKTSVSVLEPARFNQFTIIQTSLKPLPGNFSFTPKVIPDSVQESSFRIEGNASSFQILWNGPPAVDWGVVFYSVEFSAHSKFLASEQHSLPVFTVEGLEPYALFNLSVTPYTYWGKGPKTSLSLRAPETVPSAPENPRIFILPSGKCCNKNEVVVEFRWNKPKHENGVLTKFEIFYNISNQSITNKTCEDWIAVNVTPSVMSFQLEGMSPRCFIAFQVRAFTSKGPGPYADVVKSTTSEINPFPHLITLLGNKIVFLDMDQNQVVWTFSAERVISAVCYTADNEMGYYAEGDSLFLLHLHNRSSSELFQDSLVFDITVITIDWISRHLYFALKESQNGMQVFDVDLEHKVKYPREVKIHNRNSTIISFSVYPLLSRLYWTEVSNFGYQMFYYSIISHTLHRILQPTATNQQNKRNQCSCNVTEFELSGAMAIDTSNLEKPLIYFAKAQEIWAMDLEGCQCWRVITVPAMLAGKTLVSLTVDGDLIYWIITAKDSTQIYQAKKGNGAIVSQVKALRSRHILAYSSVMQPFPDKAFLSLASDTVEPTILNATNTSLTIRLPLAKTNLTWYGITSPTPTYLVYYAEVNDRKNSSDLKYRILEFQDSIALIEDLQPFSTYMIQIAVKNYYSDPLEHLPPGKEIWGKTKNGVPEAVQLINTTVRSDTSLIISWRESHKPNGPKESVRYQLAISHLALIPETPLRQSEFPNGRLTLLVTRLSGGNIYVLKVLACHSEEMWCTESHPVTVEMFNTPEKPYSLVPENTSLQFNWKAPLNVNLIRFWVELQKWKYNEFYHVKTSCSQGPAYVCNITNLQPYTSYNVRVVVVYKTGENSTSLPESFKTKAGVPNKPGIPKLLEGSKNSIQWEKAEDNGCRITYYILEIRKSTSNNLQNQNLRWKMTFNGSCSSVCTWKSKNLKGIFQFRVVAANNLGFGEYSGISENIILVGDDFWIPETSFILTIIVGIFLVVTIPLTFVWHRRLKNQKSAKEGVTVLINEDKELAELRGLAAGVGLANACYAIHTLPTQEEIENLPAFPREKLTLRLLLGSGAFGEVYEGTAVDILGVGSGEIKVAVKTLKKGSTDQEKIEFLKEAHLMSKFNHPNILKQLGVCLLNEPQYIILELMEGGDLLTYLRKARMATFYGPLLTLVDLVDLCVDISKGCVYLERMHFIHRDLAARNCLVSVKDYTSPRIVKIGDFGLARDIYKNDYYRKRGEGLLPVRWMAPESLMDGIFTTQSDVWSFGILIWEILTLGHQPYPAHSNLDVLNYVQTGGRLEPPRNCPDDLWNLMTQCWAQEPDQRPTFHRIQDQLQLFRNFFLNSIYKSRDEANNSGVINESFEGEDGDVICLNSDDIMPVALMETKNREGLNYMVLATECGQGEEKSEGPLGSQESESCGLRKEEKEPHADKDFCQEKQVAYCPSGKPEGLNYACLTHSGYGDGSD
T17 sequence (O15111 whole entry): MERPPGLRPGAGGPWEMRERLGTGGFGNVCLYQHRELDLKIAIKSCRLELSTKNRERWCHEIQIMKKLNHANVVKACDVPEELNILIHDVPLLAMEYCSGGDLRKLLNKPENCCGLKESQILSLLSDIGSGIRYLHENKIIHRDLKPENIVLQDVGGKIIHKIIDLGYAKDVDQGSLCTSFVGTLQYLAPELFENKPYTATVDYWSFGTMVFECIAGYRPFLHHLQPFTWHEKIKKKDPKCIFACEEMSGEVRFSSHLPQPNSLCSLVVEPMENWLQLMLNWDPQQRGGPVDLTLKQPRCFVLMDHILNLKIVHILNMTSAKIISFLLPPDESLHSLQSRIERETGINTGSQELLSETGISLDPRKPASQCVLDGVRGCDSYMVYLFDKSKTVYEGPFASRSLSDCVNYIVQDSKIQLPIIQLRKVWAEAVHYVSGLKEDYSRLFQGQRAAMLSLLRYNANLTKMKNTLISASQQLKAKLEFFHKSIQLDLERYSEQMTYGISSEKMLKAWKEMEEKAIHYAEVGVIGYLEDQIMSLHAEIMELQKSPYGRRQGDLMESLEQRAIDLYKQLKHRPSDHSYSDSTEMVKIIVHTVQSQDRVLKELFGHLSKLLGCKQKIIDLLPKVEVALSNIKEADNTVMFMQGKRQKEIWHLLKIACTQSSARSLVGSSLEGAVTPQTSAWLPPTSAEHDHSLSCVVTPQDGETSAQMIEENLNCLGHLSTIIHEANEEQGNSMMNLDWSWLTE
T16 sequence (P06241 whole entry): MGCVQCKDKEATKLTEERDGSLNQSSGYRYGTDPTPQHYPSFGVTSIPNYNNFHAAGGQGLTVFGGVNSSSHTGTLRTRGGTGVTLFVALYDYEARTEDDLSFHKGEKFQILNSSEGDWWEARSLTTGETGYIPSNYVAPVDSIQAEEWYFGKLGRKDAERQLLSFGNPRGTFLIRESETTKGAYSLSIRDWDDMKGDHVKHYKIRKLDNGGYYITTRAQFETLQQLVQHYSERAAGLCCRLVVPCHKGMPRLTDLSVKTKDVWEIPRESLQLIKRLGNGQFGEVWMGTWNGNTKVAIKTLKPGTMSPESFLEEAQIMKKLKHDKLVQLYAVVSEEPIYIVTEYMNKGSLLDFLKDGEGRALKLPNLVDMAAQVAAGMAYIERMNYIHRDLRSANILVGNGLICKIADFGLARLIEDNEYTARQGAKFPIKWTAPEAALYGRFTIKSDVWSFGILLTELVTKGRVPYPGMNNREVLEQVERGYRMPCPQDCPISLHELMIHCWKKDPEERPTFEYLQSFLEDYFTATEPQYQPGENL
T22 sequence (P80192 whole entry): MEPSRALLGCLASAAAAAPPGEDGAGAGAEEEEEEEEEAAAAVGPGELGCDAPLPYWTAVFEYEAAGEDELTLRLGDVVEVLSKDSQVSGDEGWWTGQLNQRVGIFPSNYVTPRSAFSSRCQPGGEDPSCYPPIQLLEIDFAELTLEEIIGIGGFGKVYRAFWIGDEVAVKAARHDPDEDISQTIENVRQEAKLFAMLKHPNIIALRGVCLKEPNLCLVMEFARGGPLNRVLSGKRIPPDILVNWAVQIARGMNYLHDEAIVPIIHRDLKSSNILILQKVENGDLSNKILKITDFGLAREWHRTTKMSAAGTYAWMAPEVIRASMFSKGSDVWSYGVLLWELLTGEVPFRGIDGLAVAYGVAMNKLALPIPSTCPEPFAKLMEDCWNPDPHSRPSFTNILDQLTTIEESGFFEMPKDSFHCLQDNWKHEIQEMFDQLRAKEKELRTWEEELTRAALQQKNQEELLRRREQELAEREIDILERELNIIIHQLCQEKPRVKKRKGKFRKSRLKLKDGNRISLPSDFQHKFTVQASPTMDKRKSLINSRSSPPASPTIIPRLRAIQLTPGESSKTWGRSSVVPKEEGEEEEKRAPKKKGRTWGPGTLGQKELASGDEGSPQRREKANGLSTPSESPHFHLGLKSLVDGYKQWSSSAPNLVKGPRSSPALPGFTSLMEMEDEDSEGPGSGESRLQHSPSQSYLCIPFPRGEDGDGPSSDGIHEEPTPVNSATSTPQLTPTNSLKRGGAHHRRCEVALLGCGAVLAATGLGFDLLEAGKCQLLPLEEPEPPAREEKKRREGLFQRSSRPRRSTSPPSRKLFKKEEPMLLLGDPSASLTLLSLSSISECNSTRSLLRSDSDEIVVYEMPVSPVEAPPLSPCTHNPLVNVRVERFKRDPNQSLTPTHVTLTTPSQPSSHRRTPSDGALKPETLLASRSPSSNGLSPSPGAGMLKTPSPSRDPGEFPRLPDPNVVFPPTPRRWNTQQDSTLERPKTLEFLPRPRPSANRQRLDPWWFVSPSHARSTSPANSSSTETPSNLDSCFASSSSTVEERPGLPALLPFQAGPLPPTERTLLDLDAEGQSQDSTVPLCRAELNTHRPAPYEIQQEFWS
T5 sequence (P30411 whole entry): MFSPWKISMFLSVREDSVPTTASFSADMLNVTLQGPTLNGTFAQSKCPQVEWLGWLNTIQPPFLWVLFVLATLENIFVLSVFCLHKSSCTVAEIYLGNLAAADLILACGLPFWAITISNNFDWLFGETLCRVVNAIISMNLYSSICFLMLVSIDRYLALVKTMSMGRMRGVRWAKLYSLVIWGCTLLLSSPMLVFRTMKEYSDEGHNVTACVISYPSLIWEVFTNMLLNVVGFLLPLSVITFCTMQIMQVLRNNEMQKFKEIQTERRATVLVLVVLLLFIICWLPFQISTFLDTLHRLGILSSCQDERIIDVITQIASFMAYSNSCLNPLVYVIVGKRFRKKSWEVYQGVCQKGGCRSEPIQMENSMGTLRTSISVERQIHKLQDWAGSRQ

O=C1NCCC12CCN(c1c(Cl)cncc1-c1ccc(N3CCOCC3)cc1)CC2 [Compound 44, 8-(3-Chloro-5-(4-morpholin-4-ylphenyl)pyridin-4-yl)-2,8-diazaspiro[4.5]decan-1-one]
Caco-2 efflux (efflux ratio, ER) [1]: no efflux
Papp at 2 h, 1 μM [1]: 37 ×10⁻⁶ cm/s
inhibition at 10 µM (A1 (h)): -11%
inhibition at 10 µM (A2A (h)): 4%
inhibition at 10 µM (A3 (h)): -7%
inhibition at 10 µM (β1 (h)): 9%
inhibition at 10 µM (B2 (h)): 5%
inhibition at 10 µM (ETA (h)): -3%
inhibition at 10 µM (CCR1 (h)): 0%
inhibition at 10 µM (NK3 (h)): 5%
% Inhibition of Control Specific Binding (sst (non-selective)): -16%
% Inhibition of Control Specific Binding (Na+ channel (site 2)): 15%
remaining activity at 1 µM (AXL): -12%
remaining activity at 1 µM (BRK): 2%
remaining activity at 1 µM (CHK2): 15%
remaining activity at 1 µM (EEF-2K): -8%
remaining activity at 1 µM (EPHA7): -2%
remaining activity at 1 µM (ERBB4): -9%
remaining activity at 1 µM (FES): 14%
remaining activity at 1 µM (FYN): 10%
remaining activity at 1 µM (IKKALPHA): 22%
remaining activity at 1 µM (IKKBETA): 3%
remaining activity at 1 µM (LOK): -1%
remaining activity at 1 µM (MET): -14%
remaining activity at 1 µM (MLCK): 1%
remaining activity at 1 µM (MLK1): 1%
remaining activity at 1 µM (MNK2): 2%
remaining activity at 1 µM (NEK2): 3%
remaining activity at 1 µM (NEK3): 18%
remaining activity at 1 µM (PDGFRALPHA): 2%
remaining activity at 1 µM (PDGFRBETA): 13%
remaining activity at 1 µM (PDK1): 3%
remaining activity at 1 µM (PKCZETA): 5%
remaining activity at 1 µM (RET): 14%
remaining activity at 1 µM (ROS): 2%
remaining activity at 1 µM (RSK3): 1%
remaining activity at 1 µM (SAPK4): -2%
remaining activity at 1 µM (SGK3): 5%
remaining activity at 1 µM (SIK): -3%
remaining activity at 1 µM (TIE2): 19%
remaining activity at 1 µM (WNK3): 0%
remaining activity at 1 µM (PIM-3): 5%
remaining activity at 1 µM (ULK3): -1%
remaining activity at 1 µM (PLK1): 14%
% Control (PI3 KINASE (P110A/P85A)): 1%

Cn1cc(-c2ccc(-c3cncc(Cl)c3N3CCC4(CCNC4=O)CC3)cc2)cn1 [Compound 74, 8-(3-Chloro-5-(4-(1-methyl-1H-pyrazol-4-yl)phenyl)pyridin-4-yl)-2,8-diazaspiro[4.5]decan-1-one]
Papp at 2 h, 1 μM [1]: 24 ×10⁻⁶ cm/s
inhibition at 10 µM (A1 (h)): -12%
inhibition at 10 µM (A2A (h)): 22%
inhibition at 10 µM (A3 (h)): 17%
inhibition at 10 µM (β1 (h)): 5%
inhibition at 10 µM (B2 (h)): 0%
inhibition at 10 µM (ETA (h)): -9%
inhibition at 10 µM (CCR1 (h)): -4%
inhibition at 10 µM (NK3 (h)): 4%
% Inhibition of Control Specific Binding (sst (non-selective)): 4%
% Inhibition of Control Specific Binding (Na+ channel (site 2)): 29%
remaining activity at 1 µM (AXL): -18%
remaining activity at 1 µM (BRK): 11%
remaining activity at 1 µM (CHK2): 7%
remaining activity at 1 µM (EEF-2K): 15%
remaining activity at 1 µM (EPHA7): 6%
remaining activity at 1 µM (ERBB4): 0%
remaining activity at 1 µM (FES): -14%
remaining activity at 1 µM (FYN): 1%
remaining activity at 1 µM (IKKALPHA): 4%
remaining activity at 1 µM (IKKBETA): 2%
remaining activity at 1 µM (LOK): -6%
remaining activity at 1 µM (MET): 3%
remaining activity at 1 µM (MLCK): 1%
remaining activity at 1 µM (MLK1): -5%
remaining activity at 1 µM (MNK2): 2%
remaining activity at 1 µM (NEK2): 6%
remaining activity at 1 µM (NEK3): 15%
remaining activity at 1 µM (PDGFRALPHA): -5%
remaining activity at 1 µM (PDGFRBETA): -6%
remaining activity at 1 µM (PDK1): -12%
remaining activity at 1 µM (PKCZETA): -7%
remaining activity at 1 µM (RET): 1%
remaining activity at 1 µM (ROS): 7%
remaining activity at 1 µM (RSK3): -5%
remaining activity at 1 µM (SAPK4): -4%
remaining activity at 1 µM (SGK3): -9%
remaining activity at 1 µM (SIK): 20%
remaining activity at 1 µM (TIE2): -25%
remaining activity at 1 µM (WNK3): -25%
remaining activity at 1 µM (PIM-3): 8%
remaining activity at 1 µM (ULK3): -2%
remaining activity at 1 µM (PLK1): -4%
% Control (PI3 KINASE (P110A/P85A)): -1%

Reference: paper PMC4767141, “Discovery of Potent, Orally Bioavailable, Small-Molecule Inhibitors of WNT Signaling from a Cell-Based Pathway Screen” (Journal of Medicinal Chemistry, 2015)
